Measurements: patent US9937162B2, “Methods of treating and preventing vascular instability diseases” (THE UNIVERSITY OF UTAH RESEARCH FOUNDATION, priority 2014, dated 2018)

What was measured:
Ccm2 ecKO mice = assay: Chronic treatment of Ccm2 ecKO mice, CCM lesions quantified by postmortem MRI; format: in vivo; conditions: treated from P5 to 5 months of age, tempol 1 mM in drinking water or cholecalciferol-enhanced chow (+25 IU/g D3)
Description: Chronic treatment studies of the effects of tempol and cholecalciferol in inducible endothelial-specific Ccm2 knockout mice (Ccm2^f/−; +/Tg(Pdgfb-iCreER^T2), also referred to herein as Ccm2 ecKO mice or endothelial knockout mice, were performed, inter alia, to evaluate the potential of tempol and/or cholecalciferol administration for the treatment of CCM disease (see Chan A C et al., J Clin Invest 121, 1871-1881 (2011) regarding the Ccm2 ecKO mice). 5 days after birth (P5), Ccm2 ecKO mice litters were assigned to a standard chow (HARLAN 2018, 1.5 IU/g D3), a standard chow plus tempol in drinking water (1 mM), or a cholecalciferol-enhanced chow (HARLAN 2018+25 IU/g D3). The chow was provided to the mother of each litter until the mice were weaned at P21. […]
At 5 months of age, mice were sacrificed by exsanguination (blood was collected for later analysis), and subsequent perfusion with saline and then 4% formaldehyde. […] Lesion area and number were quantified by two blinded reviewers using IMAGEJ and OSIRIX software. […]
The results of both reviewers were tabulated. […] FIG. 1B depicts a normalized number of CCM lesions as measured by MRI in Ccm2 ecKO mice. […] FIG. 1C is a graph depicting the number of lesions of various sizes as measured by MRI in Ccm2 ecKO mice. […]

RRAS = assay: R-Ras activation assay (pulldown, western blot) in HMVEC-D cells; format: cell-based; conditions: up to 10 μM, 60 minutes
Description: (§1) The timing of effects of cholecalciferol on the endothelium was assessed by evaluating the effect of knockdown of CCM2, and subsequent treatment with cholecalciferol, on a panel of signaling pathways associated with endothelial instability. The signaling pathways assessed included: ADP-ribosylation factor 6 (ARF6), cell division control protein 42 homolog (CDC42), transforming protein RhoA (RHOA), phosphorylation of myosin light chain (pMLC), Ras-related C3 botulinum toxin substrate 1 (RAC1), and Ras-related protein R-Ras (RRAS) (see Broman M T et al., Circ Res 98, 73-80 (2006); Broman M T et al., Trends Cardiovasc Med 17, 151-156 (2007); Eliceiri B P et al., Mol Cell 4, 915-924 (1999); Sawada J et al., Cancer Cell 22, 235-249 (2012); Weis S et al., J Cell Biol 167, 223-229 (2004); Wojciak-Stothard B et al., Vascul Pharmacol 39, 187-199 (2002); and Zhu W et al., Nature 492, 252-255 (2012)). […]
(§2) For RhoA, ARF6, Rac1/cdc42, and R-Ras activation assays, crude total cell lysate were generated and GTP-RhoA, ARF6, Rac1/cdc42, and R-Ras were precipitated with Rhotekin-RBD (EMD MILLIPORE), GGA3-PBD (CELL BIOLABS), PAK-1-PBD (EMD MILLIPORE), and Raf-1 RBD, respectively. […] RhoA, ARF6, Rac1/cdc42, and R-Ras were detected by western blotting with antibodies (RhoA, Rac1, and R-Ras antibodies were from CELL SIGNALING TECHNOLOGY; ARF6 and cad42 antibodies were from EMD MILLIPORE).

pMLC = assay: Phosphorylation of myosin light chain (pMLC) in siCCM2 HMVEC-D cells; format: cell-based; conditions: siCCM2 HMVEC-D monolayers, 100 nM or 10 μM, 60 minutes
Description: The timing of effects of cholecalciferol on the endothelium was assessed by evaluating the effect of knockdown of CCM2, and subsequent treatment with cholecalciferol, on a panel of signaling pathways associated with endothelial instability. The signaling pathways assessed included: ADP-ribosylation factor 6 (ARF6), cell division control protein 42 homolog (CDC42), transforming protein RhoA (RHOA), phosphorylation of myosin light chain (pMLC), Ras-related C3 botulinum toxin substrate 1 (RAC1), and Ras-related protein R-Ras (RRAS) (see Broman M T et al., Circ Res 98, 73-80 (2006); Broman M T et al., Trends Cardiovasc Med 17, 151-156 (2007); Eliceiri B P et al., Mol Cell 4, 915-924 (1999); Sawada J et al., Cancer Cell 22, 235-249 (2012); Weis S et al., J Cell Biol 167, 223-229 (2004); Wojciak-Stothard B et al., Vascul Pharmacol 39, 187-199 (2002); and Zhu W et al., Nature 492, 252-255 (2012)).
Wild-type, siCTRL, or siCCM2 treated HMVEC-D cells were incubated with either 100 nM or 10 μM cholecalciferol (TOCRIS BIOSCIENCE), 7-DHC (SIGMA-ALDRICH), or vehicle (0.5% DMSO) for 60 minutes (pMLC, ARF6, RAC, CDC42, RRAS) or 24 hours (RHOA), unless otherwise indicated. After treatment, the cells were washed with ice-cold PBS and lysed in 50 mM Tris pH 7.4, 150 mM NaCl, 10 mM MgCl2, 10% glycerol, 1% NP-40, 1× protease inhibitors, and 1× phosphatase inhibitors.

RHOA = assay: RhoA activation assay (GTP-RhoA pulldown, western blot) in siCCM2 HMVEC-D cells; format: cell-based; conditions: siCCM2 HMVEC-D monolayers, 100 nM or 10 μM, 24 hours
Description: as §1, §2

RAC1 = assay: Rac1 activation assay (pulldown, western blot) in HMVEC-D cells; format: cell-based; conditions: up to 10 μM, 60 minutes
Description: as §1, §2

ARF6 = ARF6 activation assay (GTP-ARF6 pulldown, western blot) in siCCM2 HMVEC-D cells; format: cell-based
Description: as §1, §2

CDC42 = assay: cdc42 activation assay (pulldown, western blot) in HMVEC-D cells; format: cell-based; conditions: up to 10 μM, 60 minutes
Description: as §1, §2

SMILES	number of CCM lesions as measured by MRI, compared to standard chow (Ccm2 ecKO mice)	basal activation of RRAS (RRAS)	CCM2 knockdown-induced activation of pMLC (pMLC)	CCM2 knockdown-induced activation of RHOA (RHOA)	basal activation of RAC1 (RAC1)	time to inhibition of ARF6 activation (ARF6; siCCM2 HMVEC-D cells, time course)	CCM2 knockdown-induced activation of ARF6 (ARF6; siCCM2 HMVEC-D monolayers, 100 nM or 10 μM, 60 minutes)	basal activation of CDC42 (CDC42)
CC1(C)CC(O)CC(C)(C)N1[O] [tempol, 4-hydroxy-2,2,6,6-tetramethylpiperidine 1-oxyl]	approximately half as many lesions							
C=C1CC[C@H](O)C/C1=C/C=C1\CCC[C@]2(C)[C@@H]([C@H](C)CCCC(C)C)CC[C@@H]12 [cholecalciferol]	approximately half as many lesions	nor did treatment of up to 10 μM cholecalciferol appear to basally inhibit activation	inhibited	inhibited	nor did treatment of up to 10 μM cholecalciferol appear to basally inhibit activation	≤ 5 min	inhibited	nor did treatment of up to 10 μM cholecalciferol appear to basally inhibit activation
